Legend:
Assay type in all cases: cell-based
hSTING-R232 = molecular target: T1, hSTING-R232 (Homo sapiens, UniProt Q86WV6, H232R); assay: THP1-Dual KI-hSTING-R232 reporter assay (IRF pathway, secreted Lucia luciferase); settings: THP1-Dual KI-hSTING-R232 cells, 24 hours; read-out: Reporter assay EC50 (nM) THP-1-R232
T1 construct: host or cells: THP1-Dual KI-hSTING-R232 (from THP1-Dual KO-STING)
Description: (§1) The activities of the STING agonists to activate human or mouse STING pathways were evaluated in THP-1-Dual™, THP1-Dual™ KI-hSTING-R232, THP1-Dual™ KI-hSTING-H232 Cells and THP1-Dual™ KI-mSTING Cells. THP-1-Dual™ cells contains hSTING-HAQ haplotype and can be used to evaluate the activity of STING agonists by monitoring the activation of NF-κB pathway and the […] (IFN regulatory factor) pathways. THP1-Dual™ KO-STING cells were generated from THP1-Dual™ cells by stable knockout of the endogenous HAQ STING gene. THP1-Dual™ KI-hSTING-R232 cells, THP1-Dual™ KI-hSTING-H232 cells and THP1-Dual™ KI-mSTING cells were generated by transfecting THP1-Dual™ KO-STING cells with hSTING-R232 or hSTING-H232 or mSTING. Stimulating these reporter cells with a STING agonist activates TRF pathway and induces the production of a secreted Lucia luciferase in the cell culture medium, which can be determined using QUANTI-Luc™ reagent.
(§2) THP-1-Dual™, THP1-Dual™ KI-hSTING-R232, THP1-Dual™ KI-hSTING-H232 and THP1-Dual™ KI-mSTING reporter cells were purchased from Invivogen and maintained in manufacture recommended culture medium with required supplemental antibiotics. On the day of assay, the cells were harvested with Accutase and counted by the Vi-CELL Cell Viability Analyzers. Cells were resuspended in HEK blue detection medium and a total of 10000 cells were seeded in each well of a 384-well flat bottom plate. […] After incubation at 37° C. in a CO2 incubator for 24 hours, 20 μl of cell culture medium per well was transferred into a 384-well white (opaque) plate. 50 μl of QUANTI-Luc™ assay solution was then added to each well and the plate was immediately transferred to an ENVISION® plate reader to measure luminescence (Perkin-Elmer). Relative luminescence readings were converted to fold change of signal using untreated cells as controls. Data was fitted with non-linear regression analysis, using log (agonist) vs. response, variable slope, 4-parameter fit equation using GraphPad Prism. Data was expressed as fold change in signal vs. dose of STING agonist in nM with error bars indicating the Standard Deviation (SD) of the quadruplicates. There result was reported in Table 2 as EC50 (the midpoint of the curve, or concentration at which […] of the maximum effect was observed).

mSTING = molecular target: T2, mSTING (Mus musculus, UniProt Q3TBT3); assay: THP1-Dual KI-mSTING reporter assay; set-up: host or cells: THP1-Dual KI-mSTING (from THP1-Dual KO-STING); settings: THP1-Dual KI-mSTING cells, 24 hours; read-out: Reporter assay EC50 (nM) THP-1 mSTING
T2 sequence (Q3TBT3 1-378): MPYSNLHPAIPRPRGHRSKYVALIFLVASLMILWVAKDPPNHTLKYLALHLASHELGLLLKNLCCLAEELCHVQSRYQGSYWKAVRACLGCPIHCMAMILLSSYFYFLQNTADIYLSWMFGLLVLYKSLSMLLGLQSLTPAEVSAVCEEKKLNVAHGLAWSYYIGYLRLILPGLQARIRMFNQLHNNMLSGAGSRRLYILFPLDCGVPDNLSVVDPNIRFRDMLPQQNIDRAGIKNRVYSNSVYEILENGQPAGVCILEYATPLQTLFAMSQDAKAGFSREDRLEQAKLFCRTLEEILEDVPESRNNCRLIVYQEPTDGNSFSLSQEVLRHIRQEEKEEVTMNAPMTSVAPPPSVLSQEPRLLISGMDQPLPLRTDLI
Description: as §1
THP-1-Dual™, THP1-Dual™ KI-hSTING-R232, THP1-Dual™ KI-hSTING-H232 and THP1-Dual™ KI-mSTING reporter cells were purchased from Invivogen and maintained in manufacture recommended culture medium with required supplemental antibiotics. On the day of assay, the cells were harvested with Accutase and counted by the Vi-CELL Cell Viability Analyzers. Cells were resuspended in HEK blue detection medium and a total of 10000 cells were seeded in each well of a 384-well flat bottom plate. Serial dilutions of STING agonists free drugs (1:3 serial dilution starting from 5 uM) was added into treatment wells. After incubation at 37° C. in a CO2 incubator for 24 hours, 20 μl of cell culture medium per well was transferred into a 384-well white (opaque) plate. 50 μl of QUANTI-Luc™ assay solution was then added to each well and the plate was immediately transferred to an ENVISION® plate reader to measure luminescence (Perkin-Elmer). Relative luminescence readings were converted to fold change of signal using untreated cells as controls. Data was fitted with non-linear regression analysis, using log (agonist) vs. response, variable slope, 4-parameter fit equation using GraphPad Prism. Data was expressed as fold change in signal vs. dose of STING agonist in nM with error bars indicating the Standard Deviation (SD) of the quadruplicates. There result was reported in Table 2 as EC50 (the midpoint of the curve, or concentration at which […] of the maximum effect was observed).

hSTING-HAQ haplotype = molecular target: T3, hSTING-HAQ haplotype (Homo sapiens, UniProt Q86WV6, G230A/H232R/R293Q/R71H); assay: THP-1-Dual reporter assay (endogenous hSTING-HAQ); settings: THP-1-Dual cells (hSTING-HAQ), 24 hours
T3 construct: host or cells: THP-1-Dual
T3 sequence (Q86WV6 whole entry R71H/G230A/H232R/R293Q): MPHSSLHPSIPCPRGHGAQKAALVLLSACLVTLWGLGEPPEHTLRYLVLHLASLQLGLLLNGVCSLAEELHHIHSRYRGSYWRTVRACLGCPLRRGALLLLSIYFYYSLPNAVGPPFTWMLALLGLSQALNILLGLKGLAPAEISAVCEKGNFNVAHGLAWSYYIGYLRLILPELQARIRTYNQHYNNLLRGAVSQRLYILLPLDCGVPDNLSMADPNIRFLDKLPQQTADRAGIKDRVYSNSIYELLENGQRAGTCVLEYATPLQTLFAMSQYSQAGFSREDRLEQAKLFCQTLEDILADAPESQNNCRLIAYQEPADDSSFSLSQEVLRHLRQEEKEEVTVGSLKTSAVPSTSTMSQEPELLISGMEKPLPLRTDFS
Description: as §1, §2

hSTING H232 = hSTING H232 (Homo sapiens, UniProt Q86WV6); assay: THP1-Dual KI-hSTING-H232 reporter assay (IRF pathway, secreted Lucia luciferase); set-up: host or cells: THP1-Dual KI-hSTING-H232 (from THP1-Dual KO-STING); settings: THP1-Dual KI-hSTING-H232 cells, 24 hours; read-out: Reporter assay EC50 (nM) THP-1-H232
Chain of hSTING H232 (Q86WV6 whole entry): as the sequence (Q86WV6 whole entry R71H/G230A/H232R/R293Q) above, with H71R, A230G, R232H, Q293R counted along it
Description: as §1, §2

T1 sequence (Q86WV6 whole entry H232R): as the sequence (Q86WV6 whole entry R71H/G230A/H232R/R293Q) above, with H71R, A230G, Q293R counted along it

EC50 (hSTING-R232) | EC50 (mSTING) | EC50 (hSTING-HAQ haplotype) | EC50 (hSTING H232) | SMILES
> 150 nM | > 150 nM | > 150 nM | > 150 nM | CCn1nc(C)cc1C(=O)Nc1nc2cc(C(N)=O)cc(OC)c2n1C/C=C/Cn1c(NC(=O)c2cn(C)nc2CN)nc2cc(C(N)=O)cc(OCCCN3CC4(CCCCO4)C3)c21 [Compound 63, (E)-7-(3-(5-oxa-2-azaspiro[3.5]nonan-2-yl)propoxy)-2-(3-(aminomethyl)-1-methyl-1H-pyrazole-4-carboxamido)-1-(4-(5-carbamoyl-2-(1-ethyl-3-methyl-1H-pyrazole-5-carboxamido)-7-methoxy-1H-benzo[d]imidazol-1-yl)but-2-en-1-yl)-1H-benzo[d]imidazole-5-carboxamide]
≤ 50 nM | ≤ 50 nM | ≤ 50 nM | ≤ 50 nM | CCc1nc(C)oc1C(=O)Nc1nc2cc(C(N)=O)cc(OCCCN3CC4(CNCCO4)C3)c2n1C/C=C/Cn1c(NC(=O)c2cc(C)nn2CC)nc2cc(C(N)=O)cc(OC)c21 [Compound 10]
> 150 nM | > 150 nM | > 150 nM | > 150 nM | COc1cc(C(N)=O)cc2nc(NC(=O)c3oc(C)nc3C)n(C/C=C/Cn3c(NC(=O)c4oc(C)nc4C)nc4cc(C(N)=O)cc(OCCCN5CCC(c6nnc7n6CCNC7)CC5)c43)c12 [Compound 43, (E)-N-(5-carbamoyl-1-(4-(5-carbamoyl-2-(2,4-dimethyloxazole-5-carboxamido)-7-(3-(4-(5,6,7,8-tetrahydro-[1,2,4]triazolo[4,3-a]pyrazin-3-yl)piperidin-1-yl)propoxy)-1H-benzo[d]imidazol-1-yl)but-2-en-1-yl)-7-methoxy-1H-benzo[d]imidazol-2-yl)-2,4-dimethyloxazole-5-carboxamide]
≤ 50 nM | ≤ 50 nM | 50 to 150 nM | 50 to 150 nM | CCc1nc(C)oc1C(=O)Nc1nc2cc(C(N)=O)cc(OCCCN3CC4(C3)CN(C(=O)[C@H](N)CC(C)C)CCO4)c2n1C/C=C/Cn1c(NC(=O)c2cc(C)nn2CC)nc2cc(C(N)=O)cc(OC)c21 [Compound 20]
> 150 nM | > 150 nM | > 150 nM | > 150 nM | CCn1nc(C)cc1C(=O)Nc1nc2cc(C(N)=O)cc(OC)c2n1C/C=C/Cn1c(NC(=O)C23CCC(C)(CC2)CC3)nc2cc(C(N)=O)cc(OCCCN3CC4(CNCCO4)C3)c21 [Compound 12]
> 150 nM | > 150 nM | > 150 nM | > 150 nM | CCn1nc(C)cc1C(=O)Nc1nc2cc(C(N)=O)cc(OC)c2n1C/C=C/Cn1c(NC(=O)Cc2cc(C)n(C)n2)nc2cc(C(N)=O)cc(OCCCN3CC4(CNCCO4)C3)c21 [Compound 9]
≤ 50 nM | ≤ 50 nM | 50 to 150 nM | 50 to 150 nM | CCc1nc(C)oc1C(=O)Nc1nc2cc(C(N)=O)cc(OCCCN3CC4(C3)CN(C(=O)[C@H](CC(C)C)NC)CCO4)c2n1C/C=C/Cn1c(NC(=O)c2cc(C)nn2CC)nc2cc(C(N)=O)cc(OC)c21 [Compound 19]
> 150 nM | > 150 nM | > 150 nM | > 150 nM | CCn1nc(C)cc1C(=O)Nc1nc2cc(C(N)=O)cc(OC)c2n1C/C=C/Cn1c(NC(=O)Cc2cnc(C)o2)nc2cc(C(N)=O)cc(OCCCN3CC4(CNCCO4)C3)c21 [Compound 7]
≤ 50 nM | 50 to 150 nM | 50 to 150 nM | ≤ 50 nM | CCc1nc(C)oc1C(=O)Nc1nc2cc(C(N)=O)cc(OCCCN3CC4(CNCCO4)C3)c2n1C/C=C/Cn1c(NC(=O)c2cc(C)nn2CC)nc2cc(C(N)=O)cnc21 [Compound 23]
≤ 50 nM | ≤ 50 nM | ≤ 50 nM | ≤ 50 nM | CCn1nc(C)cc1C(=O)Nc1nc2cc(C(N)=O)cc(OC)c2n1C/C=C/Cn1c(NC(=O)c2cc(C)nn2CC)nc2cc(C(N)=O)cc(OCCCN3CC4(C3)CN(C(=O)[C@@H](N)CC(C)C)CCO4)c21 [Compound 16]
> 150 nM | > 150 nM | > 150 nM | > 150 nM | CCn1nc(C)cc1C(=O)Nc1nc2cc(C(N)=O)cc(OC)c2n1C/C=C/Cn1c(NC(=O)c2cn(C)nc2C2CNC2)nc2cc(C(N)=O)cc(OCCCN3CC4(CCCCO4)C3)c21 [Compound 62]
≤ 50 nM | ≤ 50 nM | ≤ 50 nM | ≤ 50 nM | CCc1nc(C)sc1C(=O)Nc1nc2cc(C(N)=O)cc(OC)c2n1C/C=C/Cn1c(NC(=O)c2sc(C)nc2CC)nc2cc(C(N)=O)cc(OCCCN3CCC(c4nnc5n4CCNC5)CC3)c21 [Compound 44]
> 150 nM | > 150 nM | > 150 nM | > 150 nM | CCc1cc(C(=O)Nc2nc3cc(C(N)=O)cc(OCCCN4CC5(CNCCO5)C4)c3n2C/C=C/Cn2c(NC(=O)c3cc(C)nn3CC)nc3cc(C(N)=O)cc(OC)c32)n(C)n1 [Compound 15]
≤ 50 nM | ≤ 50 nM | ≤ 50 nM | ≤ 50 nM | CCn1nc(C)cc1C(=O)Nc1nc2cc(C(N)=O)cc(OC)c2n1C/C=C/Cn1c(NC(=O)c2cc(C)nn2C)nc2cc(C(N)=O)cc(OCCCN3CC4(CNCCO4)C3)c21 [Compound 13]
≤ 50 nM | > 150 nM | > 150 nM | 50 to 150 nM | CCn1nc(C)cc1C(=O)Nc1nc2cc(C(N)=O)cc3c2n1C/C=C/Cn1c(NC(=O)c2cc(C)nn2CC)nc2cc(C(N)=O)cc(c21)OCC1(CNC1)CO3 [Compound 24, (3E)-7,25-bis[(2-ethyl-5-methyl-pyrazole-3-carbonyl)amino]spiro[14,18-dioxa-1,6,8,24-tetrazapentacyclo[17.6.1.16,9.023,26.013,27]heptacosa-3,7,9,11,13 (27), 19 (26), 20,22,24-nonaene-16,3′-azetidine]-11,21-dicarboxamide; 2,2,2-trifluoroacetic acid]
≤ 50 nM | ≤ 50 nM | > 150 nM | ≤ 50 nM | CCn1nc(C)cc1C(=O)Nc1nc2cc(C(N)=O)cc(OC)c2n1C/C=C/Cn1c(NC(=O)c2oc(C)nc2C)nc2cc(C(N)=O)cc(OCCCN3CC4(CNCCO4)C3)c21 [Compound 11]
